SMILES strings stand for the structures.

The values below come from paper PMC13210772, “Dual FLT3/MAPK14 Proteolysis-Targeting Chimera (PROTAC) Induces Potent Acute Myeloid Leukemia Cell Death” (Pharmaceuticals, 2026).

In one series the target is T1, FLT3-ITD (Homo sapiens, UniProt P36888, INS600HVDFREYEYD).
T1 sequence (P36888 with tags, fused parts or gaps INS600HVDFREYEYD): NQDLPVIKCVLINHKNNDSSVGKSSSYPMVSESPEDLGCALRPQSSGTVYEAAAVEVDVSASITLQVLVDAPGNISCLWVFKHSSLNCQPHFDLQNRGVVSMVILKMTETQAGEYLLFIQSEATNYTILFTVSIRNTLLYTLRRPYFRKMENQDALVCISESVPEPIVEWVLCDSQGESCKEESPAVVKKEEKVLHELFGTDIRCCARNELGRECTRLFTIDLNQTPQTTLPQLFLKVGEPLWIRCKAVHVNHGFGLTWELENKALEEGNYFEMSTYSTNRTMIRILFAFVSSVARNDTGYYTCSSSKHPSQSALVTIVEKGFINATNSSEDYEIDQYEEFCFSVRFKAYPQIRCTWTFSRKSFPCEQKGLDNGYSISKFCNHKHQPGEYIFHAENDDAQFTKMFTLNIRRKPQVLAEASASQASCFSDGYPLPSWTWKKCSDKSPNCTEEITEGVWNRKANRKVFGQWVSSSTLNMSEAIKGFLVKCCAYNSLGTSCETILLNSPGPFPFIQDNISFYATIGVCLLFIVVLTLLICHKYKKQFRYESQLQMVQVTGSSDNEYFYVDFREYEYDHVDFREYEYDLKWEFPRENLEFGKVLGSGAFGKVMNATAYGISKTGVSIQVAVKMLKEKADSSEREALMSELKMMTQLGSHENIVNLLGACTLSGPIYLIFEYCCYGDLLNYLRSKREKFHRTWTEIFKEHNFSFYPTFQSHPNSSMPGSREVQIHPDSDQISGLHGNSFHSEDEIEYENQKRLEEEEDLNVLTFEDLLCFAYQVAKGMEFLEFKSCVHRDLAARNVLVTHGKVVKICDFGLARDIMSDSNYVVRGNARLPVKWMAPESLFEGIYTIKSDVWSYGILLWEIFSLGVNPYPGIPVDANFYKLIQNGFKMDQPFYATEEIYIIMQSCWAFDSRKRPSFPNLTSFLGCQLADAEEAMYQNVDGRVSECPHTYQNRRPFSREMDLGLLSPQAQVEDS
Description: FLT3-ITD degradation, immunoblot in MV4-11 cells. Particulars: for inhibition at 0.05 µM: MV4-11, 24 h, read-out: % FLT3-ITD Degradation at 50 nM; for reduction/elimination of FLT3-ITD / FLT3-ITD degradation / FLT3-ITD (130 kDa) level relative to untreated cells: MV4-11 cells; for FLT3-ITD degradation / FLT3-ITD (130 kDa) level relative to untreated cells: 50 nM; for FLT3-ITD degradation: 24 h.

A short description of a further series: Plasma stability. The class given is in vitro ADME. The note with it: for remaining at 0 h, 10 µM / remaining at 10 min, 10 µM / remaining at 0.5 h, 10 µM / remaining at 1 h, 10 µM / remaining at 2 h, 10 µM / remaining at 6 h, 10 µM: pooled human plasma, 37 °C; for remaining at 0 h, 10 µM: 0 min, read-out: 0 min—Compound Remaining %; for remaining at 10 min, 10 µM: read-out: 10 min—Compound Remaining %; for remaining at 0.5 h, 10 µM: 30 min, read-out: 30 min—Compound Remaining %; for remaining at 1 h, 10 µM: 60 min, read-out: 60 min—Compound Remaining %; for remaining at 2 h, 10 µM: 120 min, read-out: 120 min—Compound Remaining %; for remaining at 6 h, 10 µM: 360 min, read-out: 360 min—Compound Remaining %; for plasma stability: human plasma, 6 h. The procedure: Another aspect we tested for selected PROTACs, and the reference inhibitor is the stability in human plasma. PROTACs MA190 and MA191 and their parent inhibitor MA68 (10 μM, final DMSO concentration 1%) were incubated with 100 μL pooled human plasma at 37 °C. The remaining amount of the incubated compound was tested for 6 h using a HPLC method. […] The further detailed biological characterization of MA191 and the successful in vivo testing can be found in a study submitted in parallel.
To determine plasma stability, 10 μM of the given compound was incubated with 100 μL human pooled plasma for 5, 10, 30, 60, 120 and 360 min at 37 °C. The reactions were stopped by adding 300 μL of acetonitrile with subsequent plasma proteins sedimentation. The samples were subjected to ultra-centrifugation (5 min, 10,000 RPM/g) using modified PES 30K low protein binding centrifugal filter. The filtrate was then analyzed using HPLC to determine the available concentration of the compounds and also to determine and quantify potential degradation products. As HPLC system a LiChrosorb® RP-18 (5 μm) 100–4.6 column from the manufacturer Merck, two LC-10AD pumps, a SPD-M10A VP PDA detector, and a SIL HT auto-sampler were used (all from the manufacturer Shimadzu, Kyoto, Japan). As mobile phase a gradient with […] composed of methanol/water/trifluoroacetic acid at a flow rate of 1 mL/min. UV absorbance was measured at 254 nm was used.

For a further series, the target named is T2, MARK2 (Homo sapiens, UniProt Q7KZI7).
T2 construct: Full-length kinase ORF (Promega, Madison, WI, USA) cloned in frame with a NanoLuc-vector was transfected into HEK293T cells; host or cells: HEK293T
The experiment in a line: NanoBRET CELLinib128. The class given is binding. The note with it: 100% no effect, 0% complete tracer displacement, read-out: Tracer bound.

For the next series, the target named is DDR1 (Homo sapiens, UniProt Q08345). Description: NanoBRET CELLinib128. The note with it: read-out: Tracer bound.
A further series has as its target MARK3 (Homo sapiens, UniProt P27448). The experiment in a line: NanoBRET CELLinib128. The note with it: read-out: Tracer bound.
A further series deals with T3, EPHA5 (Homo sapiens, UniProt P54756).
T3 construct: Full-length kinase ORF (Promega, Madison, WI, USA) cloned in frame with a NanoLuc-vector was transfected into HEK293T cells; host or cells: HEK293T
Description: NanoBRET CELLinib128. The class given is binding. The note with it: 1 µM; 100% no effect, 0% complete tracer displacement.

The target of a further series is GSK3B (Homo sapiens, UniProt P49841). The experiment in a line: NanoBRET CELLinib128. The note with it: read-out: Tracer bound.
The target in a further series is CDK1-CCNB1 (Homo sapiens, UniProt P06493). The experiment in a line: NanoBRET CELLinib128. Particulars: read-out: Tracer bound.
For the next series, the target named is T4, TESK1 (Homo sapiens, UniProt Q15569).
T4 construct: Full-length kinase ORF (Promega, Madison, WI, USA) cloned in frame with a NanoLuc-vector; host or cells: HEK293T
The experiment in a line: NanoBRET CELLinib128. The class given is binding. Particulars: 100% no effect, 0% complete tracer displacement, read-out: Tracer bound.

Another series has as its target CLK4 (Homo sapiens, UniProt Q9HAZ1). Description: NanoBRET CELLinib128. Particulars: read-out: Tracer bound.
For another series, the target named is T5, ABL1 (Homo sapiens, UniProt P00519).
T5 construct: Full-length kinase ORF (Promega, Madison, WI, USA) cloned in frame with a NanoLuc-vector was transfected into HEK293T cells; host or cells: HEK293T
The experiment in a line: NanoBRET CELLinib128. The format is binding. Particulars: 100% no effect, 0% complete tracer displacement, read-out: Tracer bound.

A further series has as its target T6, CAMK1D (Homo sapiens, UniProt Q8IU85).
T6 construct: Full-length kinase ORF (Promega, Madison, WI, USA) cloned in frame with a NanoLuc-vector was transfected into HEK293T cells; host or cells: HEK293T
The experiment in a line: NanoBRET CELLinib128. The format is binding. Particulars: 100% no effect, 0% complete tracer displacement, read-out: Tracer bound.

T3 sequence (P54756 25-1037): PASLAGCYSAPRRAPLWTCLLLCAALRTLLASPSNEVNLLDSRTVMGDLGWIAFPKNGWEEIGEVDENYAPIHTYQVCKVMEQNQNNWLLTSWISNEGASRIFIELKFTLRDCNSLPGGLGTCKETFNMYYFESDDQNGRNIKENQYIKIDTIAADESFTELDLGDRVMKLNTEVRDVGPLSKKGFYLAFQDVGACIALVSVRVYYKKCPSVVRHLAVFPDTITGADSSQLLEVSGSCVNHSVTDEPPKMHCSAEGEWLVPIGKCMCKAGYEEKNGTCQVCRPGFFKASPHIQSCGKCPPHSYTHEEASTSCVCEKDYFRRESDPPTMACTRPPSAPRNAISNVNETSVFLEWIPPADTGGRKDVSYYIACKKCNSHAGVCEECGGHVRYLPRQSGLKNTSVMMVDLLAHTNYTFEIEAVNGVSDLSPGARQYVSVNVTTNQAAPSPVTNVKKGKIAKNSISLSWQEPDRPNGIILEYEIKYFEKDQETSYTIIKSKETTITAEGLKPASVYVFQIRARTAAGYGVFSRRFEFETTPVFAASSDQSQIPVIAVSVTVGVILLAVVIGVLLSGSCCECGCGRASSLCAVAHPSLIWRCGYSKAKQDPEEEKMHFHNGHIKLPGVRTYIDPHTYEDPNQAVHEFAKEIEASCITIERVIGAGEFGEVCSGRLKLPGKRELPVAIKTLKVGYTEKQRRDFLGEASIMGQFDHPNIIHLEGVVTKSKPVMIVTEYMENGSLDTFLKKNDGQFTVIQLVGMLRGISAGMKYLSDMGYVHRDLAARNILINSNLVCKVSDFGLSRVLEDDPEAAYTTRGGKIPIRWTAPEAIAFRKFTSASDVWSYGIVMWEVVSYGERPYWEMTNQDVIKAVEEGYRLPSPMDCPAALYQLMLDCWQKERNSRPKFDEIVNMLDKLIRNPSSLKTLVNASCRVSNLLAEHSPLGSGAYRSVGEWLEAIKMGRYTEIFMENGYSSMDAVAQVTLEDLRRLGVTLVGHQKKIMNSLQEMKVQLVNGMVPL
GSK3B, sequence (P49841 whole entry): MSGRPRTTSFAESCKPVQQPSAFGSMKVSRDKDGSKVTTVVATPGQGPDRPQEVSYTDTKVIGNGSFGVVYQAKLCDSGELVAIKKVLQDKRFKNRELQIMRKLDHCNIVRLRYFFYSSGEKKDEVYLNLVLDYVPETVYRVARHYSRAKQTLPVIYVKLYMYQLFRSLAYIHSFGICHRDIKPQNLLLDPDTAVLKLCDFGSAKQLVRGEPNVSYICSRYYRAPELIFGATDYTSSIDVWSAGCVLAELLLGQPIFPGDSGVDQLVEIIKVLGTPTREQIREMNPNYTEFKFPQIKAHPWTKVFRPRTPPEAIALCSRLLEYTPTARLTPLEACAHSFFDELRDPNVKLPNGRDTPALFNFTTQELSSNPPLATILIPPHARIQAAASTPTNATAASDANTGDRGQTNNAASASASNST
T2 sequence (Q7KZI7 whole entry): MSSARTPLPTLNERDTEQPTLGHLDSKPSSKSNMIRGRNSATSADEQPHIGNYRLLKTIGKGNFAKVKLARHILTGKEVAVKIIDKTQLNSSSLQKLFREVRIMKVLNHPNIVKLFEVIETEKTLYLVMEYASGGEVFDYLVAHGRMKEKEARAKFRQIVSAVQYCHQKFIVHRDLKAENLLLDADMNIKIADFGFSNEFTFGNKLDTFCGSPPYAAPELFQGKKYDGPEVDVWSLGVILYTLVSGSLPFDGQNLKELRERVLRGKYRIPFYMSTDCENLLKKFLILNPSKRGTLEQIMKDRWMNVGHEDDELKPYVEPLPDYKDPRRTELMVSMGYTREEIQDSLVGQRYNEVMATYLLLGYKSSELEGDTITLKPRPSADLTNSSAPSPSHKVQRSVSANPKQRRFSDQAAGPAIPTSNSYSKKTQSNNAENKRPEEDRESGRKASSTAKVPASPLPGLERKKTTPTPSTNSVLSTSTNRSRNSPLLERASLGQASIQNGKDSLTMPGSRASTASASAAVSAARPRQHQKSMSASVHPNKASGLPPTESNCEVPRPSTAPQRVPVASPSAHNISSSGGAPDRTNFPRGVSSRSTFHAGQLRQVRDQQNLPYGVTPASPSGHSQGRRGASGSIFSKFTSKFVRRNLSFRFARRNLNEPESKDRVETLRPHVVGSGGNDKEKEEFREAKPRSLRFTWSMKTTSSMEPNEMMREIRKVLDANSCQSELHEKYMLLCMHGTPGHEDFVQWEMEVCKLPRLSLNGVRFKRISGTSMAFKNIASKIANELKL
CDK1-CCNB1, sequence (P06493 whole entry): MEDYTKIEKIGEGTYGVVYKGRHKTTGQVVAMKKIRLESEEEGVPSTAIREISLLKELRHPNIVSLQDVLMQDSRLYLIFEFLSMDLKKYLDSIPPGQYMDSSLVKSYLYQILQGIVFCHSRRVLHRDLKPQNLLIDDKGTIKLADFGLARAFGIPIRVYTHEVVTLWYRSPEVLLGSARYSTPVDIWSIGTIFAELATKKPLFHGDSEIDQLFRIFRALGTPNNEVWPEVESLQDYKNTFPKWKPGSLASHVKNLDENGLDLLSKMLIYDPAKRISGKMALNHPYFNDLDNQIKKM
CDK1-CCNB1, sequence (P14635 whole entry partner): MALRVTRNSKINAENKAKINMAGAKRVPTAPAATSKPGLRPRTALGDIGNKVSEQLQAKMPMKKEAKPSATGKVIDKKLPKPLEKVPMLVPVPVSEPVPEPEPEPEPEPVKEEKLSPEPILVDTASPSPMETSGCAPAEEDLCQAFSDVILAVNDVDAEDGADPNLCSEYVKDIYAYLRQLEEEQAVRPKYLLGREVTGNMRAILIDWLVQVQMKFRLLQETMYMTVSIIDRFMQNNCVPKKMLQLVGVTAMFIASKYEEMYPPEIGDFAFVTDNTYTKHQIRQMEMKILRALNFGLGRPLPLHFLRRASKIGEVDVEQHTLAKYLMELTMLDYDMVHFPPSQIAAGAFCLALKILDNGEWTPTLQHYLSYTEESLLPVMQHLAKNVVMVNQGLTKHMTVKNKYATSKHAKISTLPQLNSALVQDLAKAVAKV
CLK4, sequence (Q9HAZ1 whole entry): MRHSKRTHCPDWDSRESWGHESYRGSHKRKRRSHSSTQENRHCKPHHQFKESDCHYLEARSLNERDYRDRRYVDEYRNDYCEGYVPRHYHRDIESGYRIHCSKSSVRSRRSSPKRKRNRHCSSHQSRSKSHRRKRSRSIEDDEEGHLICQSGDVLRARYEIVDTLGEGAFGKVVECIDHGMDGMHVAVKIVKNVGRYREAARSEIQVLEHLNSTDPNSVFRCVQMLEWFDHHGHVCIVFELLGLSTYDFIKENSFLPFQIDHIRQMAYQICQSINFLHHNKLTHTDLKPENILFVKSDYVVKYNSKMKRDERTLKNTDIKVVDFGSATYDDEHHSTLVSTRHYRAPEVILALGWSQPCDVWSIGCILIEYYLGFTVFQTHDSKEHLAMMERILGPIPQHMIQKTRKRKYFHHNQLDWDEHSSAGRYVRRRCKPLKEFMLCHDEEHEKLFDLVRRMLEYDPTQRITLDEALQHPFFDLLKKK
T5 sequence (P00519 whole entry): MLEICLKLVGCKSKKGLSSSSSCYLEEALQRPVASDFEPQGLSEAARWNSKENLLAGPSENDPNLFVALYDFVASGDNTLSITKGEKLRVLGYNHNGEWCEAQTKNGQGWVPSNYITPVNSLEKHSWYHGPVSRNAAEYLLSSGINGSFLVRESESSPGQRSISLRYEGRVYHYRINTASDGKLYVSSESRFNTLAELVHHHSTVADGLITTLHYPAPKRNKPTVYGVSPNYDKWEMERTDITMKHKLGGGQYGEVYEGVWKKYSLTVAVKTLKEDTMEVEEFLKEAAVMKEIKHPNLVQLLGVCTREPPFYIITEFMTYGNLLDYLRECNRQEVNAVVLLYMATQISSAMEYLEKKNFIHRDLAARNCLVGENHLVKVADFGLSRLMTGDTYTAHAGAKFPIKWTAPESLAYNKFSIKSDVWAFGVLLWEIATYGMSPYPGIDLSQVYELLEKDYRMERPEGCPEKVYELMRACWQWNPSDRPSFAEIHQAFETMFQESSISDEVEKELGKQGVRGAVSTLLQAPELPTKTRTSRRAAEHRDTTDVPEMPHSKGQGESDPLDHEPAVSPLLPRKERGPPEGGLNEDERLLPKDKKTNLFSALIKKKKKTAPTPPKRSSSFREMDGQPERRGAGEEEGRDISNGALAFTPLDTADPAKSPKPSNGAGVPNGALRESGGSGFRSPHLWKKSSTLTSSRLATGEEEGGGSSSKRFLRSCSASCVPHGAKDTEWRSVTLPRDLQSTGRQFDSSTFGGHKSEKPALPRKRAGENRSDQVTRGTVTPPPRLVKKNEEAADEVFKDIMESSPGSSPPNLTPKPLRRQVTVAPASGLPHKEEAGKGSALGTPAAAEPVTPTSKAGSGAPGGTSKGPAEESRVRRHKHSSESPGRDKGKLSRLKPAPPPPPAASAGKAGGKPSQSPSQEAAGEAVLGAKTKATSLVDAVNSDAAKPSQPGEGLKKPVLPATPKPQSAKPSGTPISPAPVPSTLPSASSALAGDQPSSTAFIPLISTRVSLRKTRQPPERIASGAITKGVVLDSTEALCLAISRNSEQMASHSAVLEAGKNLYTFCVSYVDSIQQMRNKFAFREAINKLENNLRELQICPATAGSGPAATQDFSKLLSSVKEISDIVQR
T6 sequence (Q8IU85 whole entry): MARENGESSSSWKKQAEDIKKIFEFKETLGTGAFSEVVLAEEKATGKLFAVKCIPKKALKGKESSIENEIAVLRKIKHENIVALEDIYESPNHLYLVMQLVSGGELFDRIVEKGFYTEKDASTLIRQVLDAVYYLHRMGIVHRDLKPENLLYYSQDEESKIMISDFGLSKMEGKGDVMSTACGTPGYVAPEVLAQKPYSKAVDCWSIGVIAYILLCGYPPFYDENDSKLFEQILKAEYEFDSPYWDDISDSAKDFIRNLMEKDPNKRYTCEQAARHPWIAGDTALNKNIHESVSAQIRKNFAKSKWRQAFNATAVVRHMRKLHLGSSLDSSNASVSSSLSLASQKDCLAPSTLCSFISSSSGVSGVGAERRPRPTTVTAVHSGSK

Turning to `Cc1ncsc1-c1ccc([C@H](C)NC(=O)[C@@H]2C[C@@H](O)CN2C(=O)[C@@H](NC(=O)CCOCCOCCOCCNC(=O)c2cc(Oc3ccc(NC(=O)Nc4cc(C(C)(C)C)on4)cc3)ccn2)C(C)(C)C)cc1` [MA49, reference compound], on FLT3-ITD, the inhibition at 0.05 µM is 80% and the “reduction/elimination of FLT3-ITD” value was found to be 80%. In addition, in the series “Plasma stability”, the share remaining at 0 h, 10 µM came to 100%; the share remaining at 10 min, 10 µM stood at 94.9 ± 2.5%; the share remaining at 0.5 h, 10 µM was found to be 96.1 ± 1.7%; the share remaining at 1 h, 10 µM is 95.2 ± 2.8%. Also, in the series “Plasma stability”, the amount remaining at 2 h, 10 µM amounted to 93.2 ± 6.7% and the fraction remaining at 6 h, 10 µM is 95.4 ± 4.3%.

Regarding `CNC(=O)c1cc(Oc2ccc(NC(=O)Nc3cc(C(C)(C)C)on3)cc2)ccn1` [MA68, reference compound], the remaining activity at 1 µM stood at 112% on MARK2; 4% at DDR1; 105% on MARK3; 120% at GSK3B; 98% at CDK1-CCNB1; 102% on TESK1. Besides, the values for the remaining activity at 1 µM on CLK4, on ABL1 and on CAMK1D were 93.8%, 71.8% and 102%, respectively. Further, the Tracer bound on EPHA5 was found to be 41.1%. In addition, on FLT3-ITD, the “FLT3-ITD degradation” value is on record as “but not their underlying kinase inhibitor MA68, eliminate FLT3-ITD”. Besides, the “plasma stability” value in the series “Plasma stability” is recorded as “high plasma stability”. Besides, in “Plasma stability”, the share remaining at 0 h, 10 µM is 100%. Besides, the fraction remaining at 10 min, 10 µM in “Plasma stability” worked out at 92.9 ± 0.2%. The amount remaining at 0.5 h, 10 µM in “Plasma stability” is 94.2 ± 1.2%. Also, the share remaining at 1 h, 10 µM in the series “Plasma stability” came to 91.9 ± 3.1%. The share remaining at 2 h, 10 µM in “Plasma stability” is 93.6 ± 3.2%. For the same molecule, the amount remaining at 6 h, 10 µM in “Plasma stability” is 88.9 ± 3.2%.

Take `Cc1ncsc1-c1ccc([C@H](C)NC(=O)[C@@H]2C[C@@H](O)CN2C(=O)[C@@H](NC(=O)[C@H]2CC[C@H](C(=O)N3CCC(CCNC(=O)c4cc(Oc5ccc(NC(=O)Nc6cc(C(C)(C)C)on6)cc5)ccn4)CC3)CC2)C(C)(C)C)cc1` [MA190, 4-(4-(3-(5-(tert-Butyl)isoxazol-3-yl)ureido)phenoxy)-N-(2-(1-(trans-4-(((S)-1-((2S,4R)-4-hydroxy-2-(((S)-1-(4-(4-methylthiazol-5-yl)phenyl)ethyl)carbamoyl)pyrrolidin-1-yl)-3,3-dimethyl-1-oxobutan-2-yl)carbamoyl)cyclohexanecarbonyl)piperidin-4-yl)ethyl)picolinamide]: on FLT3-ITD, the inhibition at 0.05 µM stood at 95%, the “reduction/elimination of FLT3-ITD” value was greater than 95%, the “FLT3-ITD (130 kDa) level relative to untreated cells” value was found to be 5% and the “FLT3-ITD degradation” value is recorded as “eliminate FLT3-ITD”. Also, in the series “Plasma stability”, the “plasma stability” value was “high plasma stability”; the fraction remaining at 0 h, 10 µM was 100%; the amount remaining at 10 min, 10 µM amounted to 94.1 ± 4.7%; the amount remaining at 0.5 h, 10 µM was 89.5 ± 1.8%. Further, in the series “Plasma stability”, the fraction remaining at 1 h, 10 µM stood at 88.3 ± 0.2%; the fraction remaining at 2 h, 10 µM was found to be 86 ± 2%; the amount remaining at 6 h, 10 µM was 86.2 ± 2.4%.

Turning to `Cc1ncsc1-c1ccc([C@H](C)NC(=O)[C@@H]2C[C@@H](O)CN2C(=O)[C@@H](NC(=O)[C@H]2CC[C@H](C(=O)N3CCN(CCNC(=O)c4cc(Oc5ccc(NC(=O)Nc6cc(C(C)(C)C)on6)cc5)ccn4)CC3)CC2)C(C)(C)C)cc1` [MA191, 4-(4-(3-(5-(tert-Butyl)isoxazol-3-yl)ureido)phenoxy)-N-(2-(4-(trans-4-(((S)-1-((2S,4R)-4-hydroxy-2-(((S)-1-(4-(4-methylthiazol-5-yl)phenyl)ethyl)carbamoyl)pyrrolidin-1-yl)-3,3-dimethyl-1-oxobutan-2-yl)carbamoyl)cyclohexanecarbonyl)piperazin-1-yl)ethyl)picolinamide], the remaining activity at 1 µM at MARK2 came to 110%. Besides, the remaining activity at 1 µM on DDR1 came to 85.7%. Besides, the remaining activity at 1 µM at MARK3 turned out to be 102%. In addition, on EPHA5, the Tracer bound is 120.0%. Moreover, at FLT3-ITD, the inhibition at 0.05 µM amounted to 95%, the “reduction/elimination of FLT3-ITD” value is greater than 95%, the “FLT3-ITD (130 kDa) level relative to untreated cells” value was determined as 5% and the “FLT3-ITD degradation” value is “eliminate FLT3-ITD”. Also, at GSK3B, the remaining activity at 1 µM was 120%. For the same molecule, on CDK1-CCNB1, the remaining activity at 1 µM was determined as 81.9%. The remaining activity at 1 µM at TESK1 amounted to 116%. Further, the remaining activity at 1 µM at CLK4 was 100%. Also, the remaining activity at 1 µM on ABL1 came to 105%. Further, the remaining activity at 1 µM on CAMK1D was found to be 85.4%. Further, in “Plasma stability”, the “plasma stability” value is “high plasma stability”; the fraction remaining at 0 h, 10 µM was determined as 100%; the share remaining at 10 min, 10 µM was found to be 95.9 ± 9.4%; the share remaining at 0.5 h, 10 µM was determined as 93.3 ± 4.2%. In addition, in the series “Plasma stability”, the fraction remaining at 1 h, 10 µM was found to be 92.6 ± 5.7%; the share remaining at 2 h, 10 µM came out at 94.9 ± 1.8%; the fraction remaining at 6 h, 10 µM was found to be 93.3 ± 0.7%.
